# Legend:
# [1] = tested on: histamine-induced skin vascular permeability; assay: Inhibitory effect on histamine-induced vascular permeability in mice; type: in vivo, ICR mice; conditions: Mus musculus, po; 5 mg/kg intragastric 1 hour before modeling; histamine phosphate 1 ug/0.1 mL; Evans Blue absorbance at 610 nm; read-out: Inhibition rate (%)
# Experimental: Intragastric administration was performed 1 hour before modeling. The model group was given the corresponding solvent. […] 10% sodium sulfide was used to depilate the back of mice (3 cm×3 cm). The mice were injected 1 ug/0.1 mL of histamine phosphate physiological saline solution into the depilation site one hour after the administration, and injected 0.25% Evans Blue solution 4 ml/kg from the tail vein immediately after the injection. After 30 minutes, the mice were dislocated and sacrificed. The blue-stained part of the skin was removed and perforated (diameter 15 mm), cut into pieces and soaked in 1 ml of acetone-saline (7:3) solution. After 24 h, it was centrifuged (3000 r/min, 10 min) to take the supernatant. The absorbance of the sample was measured with an ultraviolet spectrophotometer at a wavelength of 610 nm and a blank zero calibration with acetone-physiological saline solution.
# [2] = tested on: pilocarpine-induced saliva secretion; assay: Pilocarpine-induced salivation in rats; conditions: for saliva secretion compared with the model group: 10 mg/kg intragastric administration; for Inhibition rate (%): 10 mg/kg intragastric, pilocarpine 1 mg/kg i.p. 15 minutes later, saliva collected 10 minutes
# Experimental: Rats in each group were given corresponding drugs by intragastric administration. 15 minutes later, pilocarpine (1 mg/kg, dissolved in physiological saline) was injected intraperitoneally to induce saliva secretion. The rat was immediately anesthetized by intraperitoneal injection of 10% chloral hydrate. After the rat was anesthetized, the residual saliva in the oral cavity was taken out with a cotton ball in that the weighed cotton ball (M1) was placed in the oral cavity (two under the tongue and one for each on both sides). The cotton ball was taken out 10 minutes later and the weight of the cotton ball (M2) was immediately measured.
# Inhibition rate=Saliva secretion in drug administration group/Saliva secretion in model group×100%
# hERG potassium channel = hERG potassium channel (Homo sapiens, UniProt Q12809); assay: hERG potassium channel activity test; type: biochemical
# hERG potassium channel, sequence (Q12809 whole entry): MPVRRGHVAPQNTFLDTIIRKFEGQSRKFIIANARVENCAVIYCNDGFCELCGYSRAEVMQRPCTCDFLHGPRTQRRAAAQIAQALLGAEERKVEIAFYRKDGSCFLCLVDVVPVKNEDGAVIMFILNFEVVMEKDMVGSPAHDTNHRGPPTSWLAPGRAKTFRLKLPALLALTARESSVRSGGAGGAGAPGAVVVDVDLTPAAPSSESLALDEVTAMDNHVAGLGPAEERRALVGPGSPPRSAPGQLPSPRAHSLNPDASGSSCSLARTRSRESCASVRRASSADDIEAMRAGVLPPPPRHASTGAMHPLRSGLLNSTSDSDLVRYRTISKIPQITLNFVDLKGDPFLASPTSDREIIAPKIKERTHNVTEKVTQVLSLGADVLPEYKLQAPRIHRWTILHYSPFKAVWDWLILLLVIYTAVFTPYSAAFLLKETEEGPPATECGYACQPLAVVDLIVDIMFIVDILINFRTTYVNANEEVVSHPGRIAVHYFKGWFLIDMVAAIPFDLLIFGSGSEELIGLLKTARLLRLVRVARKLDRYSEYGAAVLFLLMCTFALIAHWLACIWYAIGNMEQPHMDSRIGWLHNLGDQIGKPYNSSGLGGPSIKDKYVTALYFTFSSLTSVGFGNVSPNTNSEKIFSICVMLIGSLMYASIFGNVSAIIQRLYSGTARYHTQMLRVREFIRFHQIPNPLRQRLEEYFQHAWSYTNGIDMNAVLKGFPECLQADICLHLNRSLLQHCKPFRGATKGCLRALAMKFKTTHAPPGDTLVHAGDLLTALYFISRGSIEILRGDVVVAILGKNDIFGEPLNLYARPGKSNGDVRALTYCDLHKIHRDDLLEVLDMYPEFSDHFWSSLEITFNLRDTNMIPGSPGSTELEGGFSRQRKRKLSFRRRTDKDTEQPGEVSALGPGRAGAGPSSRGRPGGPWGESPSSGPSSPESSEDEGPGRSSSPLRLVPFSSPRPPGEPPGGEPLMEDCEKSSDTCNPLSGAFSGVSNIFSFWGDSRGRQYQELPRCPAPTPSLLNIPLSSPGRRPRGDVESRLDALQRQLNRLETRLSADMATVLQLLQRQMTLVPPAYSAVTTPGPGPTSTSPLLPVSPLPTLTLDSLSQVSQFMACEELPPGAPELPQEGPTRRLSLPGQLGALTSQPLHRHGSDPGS
SMILES,inhibition in vivo at 5 mg/kg [1] [%],saliva secretion compared with the model group [2],Inhibition rate (%) [2] [%],IC50 (hERG potassium channel) [µM]
"Cc1ccc2c(c1)CCc1cccnc1C2=C1CCN(CCCc2ccc(C(=O)O)cc2)CC1 [Compound 1, reference compound]",36.1,decreased,84.30,2.03
CC(C)(C(=O)O)c1ccc(CCCN2CCC(=C3c4ccc(Cl)cc4CCc4cccnc43)CC2)cc1C(F)(F)F [Example 13],51,,5.77,
"CC(C)(C(=O)O)c1ccc(CCCN2CCC(=C3c4ccc(Cl)cc4CCc4cccnc43)CC2)c(N)c1 [Example 6, 2-(3-Amino-4-(3-(4-(8-chloro-5,6-dihydro-11H-benzo[5,6]cyclohept[1,2-b]pyridine-11-enyl)piperidin-1-yl)propyl)phenyl)-2-methylpropionic acid]",53.2,,6.34,
"CC(C)(C(=O)O)c1ccc(CCCN2CCC(=C3c4ccc(Cl)cc4CCc4cccnc43)CC2)cc1F [Example 9, 2-(4-(3-(4-(8-chloro-5,6-dihydro-11H-benzo[5,6]cyclohepta[1,2-b]pyridine-11-enyl)piperidine-1-yl)propyl)-2-fluorophenyl)-2-methylpropionic acid]",50.6,,12.01,
"CC(C)(C(=O)O)c1cccc(C(O)CCCN2CCC(=C3c4ccc(Cl)cc4CCc4cccnc43)CC2)c1 (stereo not drawn) [Example 30, 2-(3-(4-(4-(8-chloro-5,6-dihydro-11H-benzo[5,6]cyclohepta[1,2-b]pyridine-11-enyl)piperidine-1-yl)-1-hydroxybutyl)phenyl)-2-methylpropionic acid]",52.2,,6.74,
"CC(C)(C(=O)O)c1ccc(CCCN2CCC(=C3c4ccc(Cl)cc4CCc4cccnc43)CC2)c([N+](=O)[O-])c1 [Example 16, 2-(4-(3-(4-(8-chloro-5,6-dihydro-11H-benzo[5,6]cyclohepta[1,2-b]pyridine-11-enyl)piperidine-1-yl)propyl)-2-nitrophenyl)-2-methylpropionic acid]",50.8,,10.76,
"Cc1nc(C)c(CN2CCC(=C3c4ccc(Cl)cc4CCc4cccnc43)CC2)nc1C [Compound LP-2, reference compound]",54.1,decreased,98.40,4.03
"Cc1cc(C(C)(C)C(=O)O)ccc1CCCN1CCC(=C2c3ccc(Cl)cc3CCc3cccnc32)CC1 [Example 10, 2-(4-(3-(4-(8-chloro-5,6-dihydro-11H-benzo[5,6]cyclohepta[1,2-b]pyridine-11-enyl)piperidine-1-yl)propyl)-3-methylphenyl)-2-methylpropionic acid]",41.2,,5.13,
"CC(C)(C(=O)O)c1ccc(CCCN2CCC(=C3c4ccc(Cl)cc4CCc4cccnc43)CC2)cc1 [Example 3, 2-(4-(3-(4-(8-chloro-5,6-dihydro-11H-benzo[5,6]cyclohept[1,2-b]pyridine-11-enyl)piperidine-1-yl)propyl)phenyl)-2-methylpropionic acid]",41.7,,7.02,> 30
"CC(C)(C(=O)O)c1ccc(CCCN2CCC(=C3c4ccc(Cl)cc4CCc4cccnc43)CC2)c(Cl)c1 [Example 15, 2-(3-chloro-4-(3-(4-(8-chloro-5,6-dihydro-11H-benzo[5,6]cyclohept[1,2-b]pyridine-11-enyl)piperidin-1-yl)propyl)phenyl)-2-methylpropionic acid]",52.8,,8.42,
"CC(C)(C(=O)O)c1ccc(CCCN2CCC(=C3c4ccccc4CCc4cc(Cl)ccc43)CC2)cc1 [Example 21, 2-(4-(3-(4-(2-chloro-10,11-dihydro-5H-dibenzo[a,d][7]cycloheptenyl-naphthylene)piperidine-1-yl)propyl)phenyl)-2-methylpropionic acid]",42.6,,16.54,> 30
"COc1cc(C(C)(C)C(=O)O)ccc1CCCN1CCC(=C2c3ccc(Cl)cc3CCc3cccnc32)CC1 [Example 5, 2-(4-(3-(4-(8-chloro-5,6-dihydro-11H-benzo[5,6]cyclohepta[1,2-b]pyridine-11-enyl)piperidine-1-yl)propyl)-3-methoxyphenyl)-2-methylpropionic acid]",47.9,,11.60,
"CC(C)(C(=O)O)c1cccc(CCCN2CCC(=C3c4ccccc4CC(O)c4sccc43)CC2)c1 (stereo not drawn) [Example 27, 2-(3-(3-(4-(10-hydroxy-9,10-dihydro-4H-benzo[4,5]cyclohepta[1,2-b]thiophene-4-alkylene)piperidin-1-yl)propyl)phenyl)-2-methylpropionic acid]",48.8,,5.48,
CC(C)(C(=O)[O-])c1ccc(CCN2CCC(=C3c4ccc(Cl)cc4CCc4cccnc43)CC2)cc1.[Na+] [Example 32],,,18.93,> 30
CC(C)(C(=O)O)c1ccc(CCCN2CCC(=C3c4ccc(Cl)cc4CCc4cc(O)cnc43)CC2)cc1 [Example 20],58,,7.65,
CC(C)(C(=O)O)c1ccc(CCCCN2CCC(=C3c4ccc(Cl)cc4CCc4cccnc43)CC2)cc1 [Example 24],47.6,,10.32,
"CC(C)(C(=O)O)c1ccc(CCCN2CCC(=C3c4ccccc4CC(=O)c4sccc43)CC2)cc1 [Example 22, 2-Methyl-2-(4-(3-(4-(10-oxo-9,10-dihydro-4H-benzo[4,5]cyclohepta[1,2-b]thiophene-4-alkylene)piperidin 1-yl)propyl)phenyl) propionic acid]",63.3,,18.43,
CC(C)(C(=O)O)c1ccc(CCCN2CCC(=C3c4ccc(Cl)cc4CCc4cccnc43)CC2)c(C(F)(F)F)c1 [Example 12],44.6,,7.48,
"CC(C)(C(=O)O)c1cccc(CCCN2CCC(=C3c4ccc(Cl)cc4CCc4cccnc43)CC2)c1 [Example 25, 2-(3-(3-(4-(8-chloro-5,6-dihydro-11H-benzo [5,6]cyclohepta [1,2-b]pyridine-11-enyl)piperidine-1-yl)propyl)phenyl)-2-methylpropionic acid]",66.8,,9.68,
"CC(C)(C(=O)O)c1ccc(CCN2CCC(=C3c4ccc(Cl)cc4CCc4cccnc43)CC2)cc1 [Example 2, 2-(4-(2-(4-(4-(8-chloro-5,6-dihydro-11H-benzo[5,6]]cyclohept[1,2-b]pyridine-11-enyl)piperidin-1-yl)ethyl)phenyl)-2-methylpropionic acid]",54,,7.64,
"CC(C)(C(=O)O)c1ccc(CCCN2CCC(=C3c4ccc(Cl)cc4CCc4cccnc43)CC2)c(Br)c1 [Example 14, 2-(3-Bromo-4-(3-(4-(8-chloro-5,6-dihydro-11H-benzo[5,6]cyclohept[1,2-b]pyridine-11-enyl)piperidin-1-yl)propyl)phenyl)-2-methylpropionic acid]",42.8,,3.78,
"CC(C)(C(=O)O)c1ccc(CCCN2CCC(=C3c4ccc(Cl)cc4CCc4cccnc43)CC2)cc1[N+](=O)[O-] [Example 17, 2-(4-(3-(4-(8-chloro-5,6-dihydro-11H-benzo[5,6]cyclohepta[1,2-b]pyridine-11-enyl)piperidine-1-yl)propyl)-3-nitrophenyl)-2-methylpropionic acid]",49.2,,6.54,
"CC(C)(C(=O)O)c1ccccc1CCCN1CCC(=C2c3ccc(Cl)cc3CCc3cccnc32)CC1 [Example 28, 2-(2-(3-(4-(8-chloro-5,6-dihydro-11H-benzo[5,6]cyclohepta[1,2-b]pyridine-11-enyl)piperidine-1-yl)propyl)phenyl)-2-methylpropionic acid]",43.8,,19.65,
"CC(C)(C(=O)O)c1ccc(CCCN2CCC(=C3c4ccccc4CC(O)c4sccc43)CC2)cc1 (stereo not drawn) [Example 23, 2-(4-(3-(4-(10-hydroxy-9,10-dihydro-4H-benzo[4,5]cyclohept[1,2-b]thiophen-4-alkylene)piperidin-1-yl)propyl)phenyl)-2-methylpropionic acid]",66.7,,8.54,
CC(C)(C(=O)O)c1ccc(CCCN2CCC(=C3c4ccc(Cl)cc4C(O)Cc4cccnc43)CC2)cc1 (stereo not drawn) [Example 19],53.3,,11.83,
CC(C)(C(=O)O)c1ccc(CCCN2CCC(=C3c4ccc(Cl)cc4CC(O)c4cccnc43)CC2)cc1 (stereo not drawn) [Example 18],46.6,,12.50,
"CC(C)(C(=O)O)c1cccc(C(O)CCN2CCC(=C3c4ccc(Cl)cc4CCc4cccnc43)CC2)c1 (stereo not drawn) [Example 31, 2-(3-(3-(4-(8-chloro-5,6-dihydro-11H-benzo[5,6]cyclohepta[1,2-b]pyridine-11-enyl)piperidine-1-yl)-1-hydroxypropyl)phenyl)-2-methylpropionic acid]",48,,13.25,

# Source: patent publication US20230140276A1, “TRICYCLIC COMPOUNDS, PREPARATION METHOD AND MEDICAL USE THEREOF” (HEFEI INSTITUTE OF PHARMACEUTICAL INDUSTRY CO., LTD., priority 2020, published 2023)
